This is an account of results in US10689344B2, “Biphenylamide derivative Hsp90 inhibitors” (University of Kansas, priority 2013, dated 2020).

For experiment [1], the system named is MCF-7 (estrogen receptor positive breast cancer cells). Kind of experiment: Anti-proliferation assay (MTS/PMS, 72 h), MCF-7. The format is cell-based. Conditions: Homo sapiens. The gist of the method:
(§1)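 Cells seeded at 2000/well, attached overnight, then exposed to compound at varying concentrations (1% DMSO final) for 72 h at 37° C, 5% CO2. Viability by MTS/PMS, normalised to 1% DMSO controls as 100% proliferation; IC50 from separate triplicate experiments.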

Experiment [2] deals with SKBr3 (estrogen receptor negative, HER2 over-expressing breast cancer cells). Kind of experiment: Anti-proliferation assay (MTS/PMS, 72 h), SKBr3. Format: cell-based. To be noted: Homo sapiens. The essentials:
as §1

Where [3] appears, read: MCF7, Table 8, para-para biphenyl core with substituted biphenylamide group.
Setting [4] is: SK-BR-3, Table 8, para-para biphenyl core with substituted biphenylamide group.
The mark [5] stands for this setting: MCF7, Table 5, modified linkers in para-para biphenyl core.
Where [6] appears, read: SK-BR-3, Table 5, modified linkers in para-para biphenyl core.
The mark [7] stands for this setting: MCF7, Table 7, para-para biphenyl core with modified ether groups.
The mark [8] stands for this setting: SK-BR-3, Table 7, para-para biphenyl core with modified ether groups.
The mark [9] stands for this setting: MCF7, Table 1, ortho, meta and para biphenyl cores.
Setting [10] is: SK-BR-3, Table 1, ortho, meta and para biphenyl cores.

The term IC50 denotes the concentration that inhibits the measured activity by half.

Regarding `COc1ccc(C(=O)Nc2ccc(-c3ccc(OC4CCN(C)CC4)cc3)cc2)cc1-c1cccc(N)c1` [Compound 50c, 3′-amino-6-methoxy-N-(4′-((1-methylpiperidin-4-yl)oxy)-[1,1′-biphenyl]-4-yl)-[1,1′-biphenyl]-3-carboxamide], the results for the IC50 in experiment [1] (setting [3]) and in experiment [2] (setting [4]) were 1.67 ± 0.68 µM and 1.52 ± 0.55 µM, respectively.

On to `COc1ccc(C(=O)Nc2ccc(-c3ccc(OC4CCN(C)CC4)cc3)cc2)cc1-c1cccc(NC(C)=O)c1` [Compound 50d, 3′-acetamido-6-methoxy-N-(4′-((1-methylpiperidin-4-yl)oxy)-[1,1′-biphenyl]-4-yl)-[1,1′-biphenyl]-3-carboxamide], for which the IC50 in experiment [1] (setting [3]) is 1.43 ± 0.28 µM; in experiment [2] (setting [4]), 3.37 ± 0.74 µM.

For the compound `COc1cccc(-c2cc(NC(=O)Nc3ccc(-c4ccc(OC5CCN(C)CC5)cc4)cc3)ccc2OC)c1` [Compound 52, 1-(3′,6-dimethoxy-[1,1′-biphenyl]-3-yl)-3-(4′-((1-methylpiperidin-4-yl)oxy)-[1,1′-biphenyl]-4-yl)urea], the half-inhibitory concentration (IC50) in experiment [1] (setting [5]) came to 1.26 ± 0.13 µM; in experiment [2] (setting [6]), 0.91 ± 0.08 µM.

On to `COc1cccc(-c2cc(C(=O)Nc3ccc(-c4ccc(OCCC5CCCCN5)cc4)cc3)ccc2OC)c1` (stereo not drawn) [Compound 56a, 3′,6-dimethoxy-N-(4′-(2-(piperidin-2-yl)ethoxy)-[1,1′-biphenyl]-4-yl)-[1,1′-biphenyl]-3-carboxamide], for which the values for the IC50 in experiment [1] (setting [7]) and in experiment [2] (setting [8]) were 0.95 µM and 0.85 ± 0.2 µM, respectively.

On to `COc1cccc(-c2cc(C(=O)Nc3ccc(-c4ccc(OC5CC6CCC(C5)N6C)cc4)cc3)ccc2OC)c1` [Compound 56b, 3′,6-dimethoxy-N-(4′-(((1R,3s,5S)-8-methyl-8-azabicyclo[3.2.1]octan-3-yl)oxy)-[1,1′-biphenyl]-4-yl)-[1,1′-biphenyl]-3-carboxamide], for which the IC50 in experiment [1] (setting [7]) was found to be 1.32 ± 0.23 µM; in experiment [2] (setting [8]), 1.67 ± 0.6 µM.

Consider `COc1cccc(-c2cc(C(=O)Nc3ccc(-c4ccc(OCCCN(C)C)cc4)cc3)ccc2OC)c1` [Compound 56c, N-(4′-(3-(dimethylamino)propoxy)-[1,1′-biphenyl]-4-yl)-3′,6-dimethoxy-[1,1′-biphenyl]-3-carboxamide], for which the IC50 was determined as 0.87 ± 0.04 µM in experiment [1] (setting [7]) and 1.02 ± 0.05 µM in experiment [2] (setting [8]).

As to `COc1cccc(-c2cc(NC(=O)c3ccc(-c4ccc(OC5CCN(C)CC5)cc4)cc3)ccc2OC)c1` [Compound 60], the results for the IC50 in experiment [1] (setting [5]) and in experiment [2] (setting [6]) were 1.22 ± 0.13 µM and 1.64 ± 0.79 µM, respectively.

Consider `CN1CCC(Oc2ccc(-c3cccc(NC(=O)C45CC6CC(CC(C6)C4)C5)c3)cc2)CC1` [Compound 61a, N-(4′-((1-methylpiperidin-4-yl)oxy)-[1,1′-biphenyl]-3-yl)adamantane-1-carboxamide], for which the IC50 turned out to be 0.77 ± 0.08 µM in experiment [1] (setting [9]) and 1.25 ± 0.04 µM in experiment [2] (setting [10]).

Take `CN1CCC(Oc2cccc(-c3cccc(NC(=O)C45CC6CC(CC(C6)C4)C5)c3)c2)CC1` [Compound 61b, N-(3′-((1-methylpiperidin-4-yl)oxy)-[1,1′-biphenyl]-3-yl)adamantane-1-carboxamide]: the IC50 in experiment [1] (setting [9]) is 2.07 ± 0.09 µM; in experiment [2] (setting [10]), 2.6 ± 0.71 µM.

As for `CN1CCC(Oc2ccc(-c3ccc(NC(=O)C45CC6CC(CC(C6)C4)C5)cc3)cc2)CC1` [Compound 61c, N-(4′-((1-methylpiperidin-4-yl)oxy)-[1,1′-biphenyl]-4-yl)adamantane-1-carboxamide], the IC50 in experiment [1] (setting [9]) came out at 2.77 ± 0.23 µM; in experiment [2] (setting [10]) it was 2.07 ± 0.35 µM.

As for `COc1cccc(-c2cc(C(=O)Nc3cccc(-c4cccc(OC5CCN(C)CC5)c4)c3)ccc2OC)c1` [Compound 61d, 3′,6-dimethoxy-N-(3′-((1-methylpiperidin-4-yl)oxy)-[1,1′-biphenyl]-3-yl)-[1,1′-biphenyl]-3-carboxamide], the half-maximal inhibitory concentration (IC50) stood at 2 ± 0.07 µM in experiment [1] (setting [9]) and 1.62 ± 0.07 µM in experiment [2] (setting [10]).

With `CC(=O)Oc1ccc(C(=O)Nc2cccc(-c3ccc(OC4CCN(C)CC4)cc3)c2)cc1CC=C(C)C` [Compound 61e, 2-(3-methylbut-2-en-1-yl)-4-((4′-((1-methylpiperidin-4-yl)oxy)-[1,1′-biphenyl]-3-yl)carbamoyl)phenyl acetate], the values for the IC50 in experiment [1] (setting [9]) and in experiment [2] (setting [10]) were 2.71 ± 0.4 µM and 3.47 µM, respectively.

For the compound `CC(=O)Oc1ccc(C(=O)Nc2cccc(-c3cccc(OC4CCN(C)CC4)c3)c2)cc1CC=C(C)C` [Compound 61f, 2-(3-methylbut-2-en-1-yl)-4-((3′-((1-methylpiperidin-4-yl)oxy)-[1,1′-biphenyl]-3-yl)carbamoyl)phenyl acetate], the figures for the 50% inhibitory concentration (IC50) in experiment [1] (setting [9]) and in experiment [2] (setting [10]) were 1.7 ± 0.21 µM and 1.76 ± 0.16 µM, respectively.

As to `CN1CCC(Oc2cccc(-c3cccc(NC(=O)c4ccc(Cl)cc4)c3)c2)CC1` [Compound 61g, 4-chloro-N-(3′-((1-methylpiperidin-4-yl)oxy)-[1,1′-biphenyl]-3-yl)benzamide], the half-inhibitory concentration (IC50) is 4.89 ± 0.08 µM in experiment [1] (setting [9]) and 4.15 ± 0.96 µM in experiment [2] (setting [10]).

In the case of `COc1ccc(C(=O)Nc2cccc(-c3cccc(OC4CCN(C)CC4)c3)c2)cc1` [Compound 61h, 4-methoxy-N-(3′-((1-methylpiperidin-4-yl)oxy)-[1,1′-biphenyl]-3-yl)benzamide], the values for the IC50 in experiment [1] (setting [9]) and in experiment [2] (setting [10]) were 8.2 µM and 13.2 ± 1.97 µM, respectively.

Consider `CN1CCC(Oc2cccc(-c3cccc(NC(=O)c4ccc(C(C)(C)C)cc4)c3)c2)CC1` [Compound 61i, 4-(tert-butyl)-N-(3′-((1-methylpiperidin-4-yl)oxy)-[1,1′-biphenyl]-3-yl)benzamide], for which the IC50 in experiment [1] (setting [9]) was 1.93 ± 0.33 µM; in experiment [2] (setting [10]), 3.36 ± 0.2 µM.

`CC(=O)Oc1ccc(C(=O)Nc2ccc(-c3ccc(OC4CCN(C)CC4)cc3)cc2)cc1CC=C(C)C` [Compound 61j, 2-(3-methylbut-2-en-1-yl)-4-((4′-((1-methylpiperidin-4-yl)oxy)-[1,1′-biphenyl]-4-yl)carbamoyl)phenyl acetate]: the IC50 in experiment [1] (setting [9]) is 1.37 ± 0.18 µM; in experiment [2] (setting [10]), 1.82 ± 0.21 µM.

On to `COc1ccc(C(=O)Nc2ccc(Nc3ccc(OC4CCN(C)CC4)cc3)cc2)cc1` [drawing 159], for which the IC50 is 2.83 ± 1.87 µM in experiment [1] (MCF7, Table 11, heteroatom linked biphenyl core) and 18.2 ± 2.19 µM in experiment [2] (SK-BR-3, Table 11, heteroatom linked biphenyl core).
